Reference: PMC4310556, “Radiosynthesis and in Vivo Evaluation of Two PET Radioligands for Imaging α-Synuclein” (Applied sciences (Basel, Switzerland), 2014)
Values joined by “and” are separate entries in the source; they are usually repeats but may differ in a detail not shown here. Identical values can stand only once.

What was measured:
[1] = Ex vivo biodistribution in rats; set-up: species or system Sprague-Dawley rats; details: for Blood-brain barrier penetration: ex vivo rat biodistribution; for Biodistribution, blood / Biodistribution, bone / Biodistribution, brain (total brain uptake) / Biodistribution, fat / Biodistribution, heart / Biodistribution, kidney / Biodistribution, liver / Biodistribution, lung / Biodistribution, muscle / Biodistribution, pancreas / Biodistribution, spleen: male Sprague-Dawley rats, i.v. tail vein, n = 4; for Distribution of radioactivity in brain regions: rat brain regions, Figure 2
Protocol: All animal experiments were conducted in compliance with the Guidelines for the Care and Use of Research Animals under protocols approved by Washington University's Animal Studies Committee. […] Group of rats (n = 4) were used for each time point. […] The whole brain was quickly removed and dissected into segments consisting of brain stem, thalamus, striatum, hippocampus, cortex and cerebellum. The remainder of the brain was also collected to determine total brain uptake. […] Tissues were weighed, and the percent injected dose (%ID)/gram for each tissue was calculated.

[2] = MicroPET brain imaging in cynomolgus macaque; assay type: in vivo
Protocol: Before each scan (n = 2), the animal was fasted for 12 h and then initially anesthetized with ketamine (10 mg/kg) and glycopyrrolate (0.13 mg/kg) intramuscularly. Upon arrival at the scanner, the monkey was intubated, and a percutaneous catheter placed for tracer injection. The head was positioned supine in the adjustable head holder with the brain in the center of the field of view. Anesthesia was maintained at 0.75%–2.0% isoflurane/oxygen and the core temperature maintained at 37 °C. A 10-min transmission scan was performed to confirm positioning; this was followed by a 45-min transmission scan for attenuation correction.

[3] = healthy cynomolgus macaque, microPET

## O=[N+]([O-])c1ccc2c(c1)Sc1cc(OCC[18F])ccc1N2 [[^18F]2b]
[1]
  Blood-brain barrier penetration: crossed the blood-brain barrier (BBB)
  Distribution of radioactivity in brain regions: homogeneous distribution in the brain regions
[1]; 5 min post injection
  Biodistribution, blood: 0.553 ± 0.047 %ID/gram
  Biodistribution, bone: 0.340 ± 0.027 %ID/gram
  Biodistribution, brain (total brain uptake): 0.758 ± 0.013 %ID/gram
  Biodistribution, fat: 0.255 ± 0.037 %ID/gram
  Biodistribution, heart: 0.757 ± 0.033 %ID/gram
  Biodistribution, kidney: 1.070 ± 0.058 %ID/gram
  Biodistribution, liver: 1.626 ± 0.221 %ID/gram
  Biodistribution, lung: 0.833 ± 0.053 %ID/gram
  Biodistribution, muscle: 0.430 ± 0.031 %ID/gram
  Biodistribution, pancreas: 1.004 ± 0.147 %ID/gram
  Biodistribution, spleen: 0.672 ± 0.064 %ID/gram
[1]; 30 min post injection
  Biodistribution, blood: 0.589 ± 0.016 %ID/gram
  Biodistribution, bone: 0.309 ± 0.020 %ID/gram
  Biodistribution, brain (total brain uptake): 0.465 ± 0.018 %ID/gram
  Biodistribution, fat: 0.425 ± 0.023 %ID/gram
  Biodistribution, heart: 0.505 ± 0.015 %ID/gram
  Biodistribution, kidney: 0.988 ± 0.090 %ID/gram
  Biodistribution, liver: 0.847 ± 0.027 %ID/gram
  Biodistribution, lung: 0.561 ± 0.021 %ID/gram
  Biodistribution, muscle: 0.451 ± 0.018 %ID/gram
  Biodistribution, pancreas: 0.546 ± 0.068 %ID/gram
  Biodistribution, spleen: 0.509 ± 0.022 %ID/gram
[1]; 60 min post injection
  Biodistribution, blood: 0.606 ± 0.035 %ID/gram
  Biodistribution, bone: 0.407 ± 0.043 %ID/gram
  Biodistribution, brain (total brain uptake): 0.410 ± 0.030 %ID/gram
  Biodistribution, fat: 0.371 ± 0.067 %ID/gram
  Biodistribution, heart: 0.466 ± 0.040 %ID/gram
  Biodistribution, kidney: 0.678 ± 0.032 %ID/gram
  Biodistribution, liver: 0.561 ± 0.028 %ID/gram
  Biodistribution, lung: 0.491 ± 0.030 %ID/gram
  Biodistribution, muscle: 0.376 ± 0.019 %ID/gram
  Biodistribution, pancreas: 0.409 ± 0.029 %ID/gram
  Biodistribution, spleen: 0.446 ± 0.038 %ID/gram
[1]; 120 min post injection
  Biodistribution, blood: 0.585 ± 0.046 %ID/gram
  Biodistribution, bone: 0.644 ± 0.071 %ID/gram
  Biodistribution, brain (total brain uptake): 0.359 ± 0.016 %ID/gram
  Biodistribution, fat: 0.293 ± 0.048 %ID/gram
  Biodistribution, heart: 0.410 ± 0.030 %ID/gram
  Biodistribution, kidney: 0.659 ± 0.027 %ID/gram
  Biodistribution, liver: 0.467 ± 0.023 %ID/gram
  Biodistribution, lung: 0.436 ± 0.018 %ID/gram
  Biodistribution, muscle: 0.315 ± 0.015 %ID/gram
  Biodistribution, pancreas: 0.330 ± 0.021 %ID/gram
  Biodistribution, spleen: 0.398 ± 0.019 %ID/gram
[1]; rats, bone uptake up to 120 min
  In vivo defluorination (bone uptake): no defluorination was observed

## [11CH3]Oc1ccc2c(c1)Sc1cc([N+](=O)[O-])ccc1N2 [[^11C]2a]
[1]
  Blood-brain barrier penetration: crossed the blood-brain barrier (BBB)
  Distribution of radioactivity in brain regions: homogeneous distribution in the brain regions
[1]; 5 min post injection
  Biodistribution, blood: 0.506 ± 0.040 %ID/gram
  Biodistribution, brain (total brain uptake): 0.953 ± 0.115 %ID/gram
  Biodistribution, fat: 0.155 ± 0.023 %ID/gram
  Biodistribution, heart: 0.758 ± 0.052 %ID/gram
  Biodistribution, kidney: 1.362 ± 0.054 %ID/gram
  Biodistribution, liver: 2.198 ± 0.111 %ID/gram
  Biodistribution, lung: 1.149 ± 0.058 %ID/gram
  Biodistribution, muscle: 0.271 ± 0.005 %ID/gram
  Biodistribution, pancreas: 1.007 ± 0.262 %ID/gram
  Biodistribution, spleen: 0.659 ± 0.049 %ID/gram
[1]; 30 min post injection
  Biodistribution, blood: 0.369 ± 0.031 %ID/gram
  Biodistribution, brain (total brain uptake): 0.287 ± 0.046 %ID/gram
  Biodistribution, fat: 0.241 ± 0.042 %ID/gram
  Biodistribution, heart: 0.377 ± 0.046 %ID/gram
  Biodistribution, kidney: 0.807 ± 0.086 %ID/gram
  Biodistribution, liver: 1.349 ± 0.116 %ID/gram
  Biodistribution, lung: 0.740 ± 0.038 %ID/gram
  Biodistribution, muscle: 0.325 ± 0.030 %ID/gram
  Biodistribution, pancreas: 0.506 ± 0.066 %ID/gram
  Biodistribution, spleen: 0.400 ± 0.052 %ID/gram
[1]; 60 min post injection
  Biodistribution, blood: 0.300 ± 0.015 %ID/gram
  Biodistribution, brain (total brain uptake): 0.158 ± 0.014 %ID/gram and 0.158 ± 0.013 %ID/gram
  Biodistribution, fat: 0.293 ± 0.076 %ID/gram
  Biodistribution, heart: 0.245 ± 0.010 %ID/gram
  Biodistribution, kidney: 0.559 ± 0.053 %ID/gram
  Biodistribution, liver: 1.116 ± 0.024 %ID/gram
  Biodistribution, lung: 0.485 ± 0.036 %ID/gram
  Biodistribution, muscle: 0.199 ± 0.016 %ID/gram
  Biodistribution, pancreas: 0.522 ± 0.036 %ID/gram
  Biodistribution, spleen: 0.386 ± 0.027 %ID/gram
[2]; healthy adult male cynomolgus macaque, i.v., microPET
  Time of peak brain uptake post-injection (time-activity curve): 3 min
[2]; [3]
  Blood-brain barrier penetration: able to cross the BBB
  Brain washout kinetics: fast washout kinetics from the brain regions
[2]; healthy cynomolgus macaque, summed image 0-120 min
  Distribution of radioactivity in the brain: homogeneous distribution of radioactivity in the brain
